From US10004701B2, “Methods and compositions for treating infection” (UNIVERSITY OF ROCHESTER, priority 2012, dated 2018)
Where a name gives a salt, the structure may show the parent alone. Read-outs that look alike come from different tables or passages of the source.

Key:
Assay in all cases: AK assay 384-well format, Prestwick library screening
E. faecium = assay type: cell-based, Enterococcus faecium; conditions: 50 μM final drug concentration; for fold induction at 50 µM: Enterococcus faecium, 3 h
P. aeruginosa = assay type: cell-based, Pseudomonas aeruginosa; conditions: 50 μM final drug concentration; for fold induction at 50 µM: Pseudomonas aeruginosa, 3 h
E. cloacae = assay type: cell-based, Enterobacter cloacae; conditions: 50 μM final drug concentration; for fold induction at 50 µM: Enterobacter cloacae, 3 h
[1] = system: S. aureus strain USA300-0114; assay type: cell-based, Staphylococcus aureus; conditions: 50 μM final drug concentration; for fold induction at 50 µM: Staphylococcus aureus, USA300, 3 h
[2] = system: A. baumannii strain 98-37-09; assay type: cell-based, Acinetobacter baumannii; conditions: 50 μM final drug concentration; for fold induction at 50 µM: Acinetobacter baumannii, 983709, 3 h
K. pneumoniae = assay type: cell-based, Klebsiella pneumoniae; conditions: 50 μM final drug concentration; for fold induction at 50 µM: Klebsiella pneumoniae, 3 h
E. coli = assay type: cell-based, Escherichia coli; conditions: 50 μM final drug concentration; for fold induction at 50 µM: Escherichia coli, 3 h
[3] = planktonic E. faecium, […], read-out: AK-based Prestwick Library Screening Results, E. faecium (increase in extracellular AK activity)
[4] = planktonic P. aeruginosa, […], read-out: AK-based Prestwick Library Screening Results, P. aeruginosa (increase in extracellular AK activity)
[5] = planktonic E. cloacae, […], read-out: AK-based Prestwick Library Screening Results, E. cloacae (increase in extracellular AK activity)
[6] = planktonic S. aureus, […], read-out: AK-based Prestwick Library Screening Results, S. aureus (increase in extracellular AK activity)
[7] = planktonic A. baumannii, […], read-out: AK-based Prestwick Library Screening Results, A. baumannii (increase in extracellular AK activity)
[8] = planktonic K. pneumoniae, […], read-out: AK-based Prestwick Library Screening Results, K. pneumoniae (increase in extracellular AK activity)
[9] = planktonic E. coli, […], read-out: AK-based Prestwick Library Screening Results, E. coli (increase in extracellular AK activity)

CNC(=O)c1c(I)c(C(=O)NCC(=O)Nc2c(I)c(C(=O)O)c(I)c(C(=O)NCCO)c2I)c(I)c(N(C)C(C)=O)c1I [loxaglic acid] was tested, and the “AK-based Prestwick library screening result, E. faecium (fold increase in extracellular AK activity)” value (E. faecium; planktonic E. faecium, positive cutoff 3-fold increase) was 0.9, the “AK-based Prestwick library screening result, P. aeruginosa (fold increase in extracellular AK activity)” value (P. aeruginosa; planktonic P. aeruginosa, positive cutoff 3-fold increase) was 0.8 and the “AK-based Prestwick library screening result, E. cloacae (fold increase in extracellular AK activity)” value (E. cloacae; planktonic E. cloacae, positive cutoff 3-fold increase) was 1.1. The “AK-based Prestwick library screening result, S. aureus (fold increase in extracellular AK activity)” value ([1]; planktonic S. aureus, positive cutoff 3-fold increase) was 0.6, the “AK-based Prestwick library screening result, A. baumannii (fold increase in extracellular AK activity)” value ([2]; planktonic A. baumannii, positive cutoff 3-fold increase) was 0.8 and the “AK-based Prestwick library screening result, K. pneumoniae (fold increase in extracellular AK activity)” value (K. pneumoniae; planktonic K. pneumoniae, positive cutoff 3-fold increase) was 0.8. The “AK-based Prestwick library screening result, E. coli (fold increase in extracellular AK activity)” value (E. coli; planktonic E. coli, […]) was 0.9.

Molecule O=C(O)CN(CCN(CC(=O)O)CC(=O)O)CCN(CC(=O)O)CC(=O)O [Pentetic acid] has a fold induction at 50 µM (E. faecium; cutoff for positive-scoring molecules 3-fold increase, read-out: AK-based Prestwick Library Screening Results, E. faecium (fold increase in extracellular AK activity)) of 1, a fold induction at 50 µM (P. aeruginosa; cutoff for positive-scoring molecules 3-fold increase, read-out: AK-based Prestwick Library Screening Results, P. aeruginosa (fold increase in extracellular AK activity)) of 1.2 and a fold induction at 50 µM (E. cloacae; cutoff for positive-scoring molecules 3-fold increase, read-out: AK-based Prestwick Library Screening Results, E. cloacae (fold increase in extracellular AK activity)) of 1.5. It also gave a fold induction at 50 µM ([1]; cutoff for positive-scoring molecules 3-fold increase, read-out: AK-based Prestwick Library Screening Results, S. aureus (fold increase in extracellular AK activity)) of 1.4, a fold induction at 50 µM ([2]; cutoff for positive-scoring molecules 3-fold increase, read-out: AK-based Prestwick Library Screening Results, A. baumannii (fold increase in extracellular AK activity)) of 1.3 and a fold induction at 50 µM (K. pneumoniae; cutoff for positive-scoring molecules 3-fold increase, read-out: AK-based Prestwick Library Screening Results, K. pneumoniae (fold increase in extracellular AK activity)) of 1.1. It also gave a fold induction at 50 µM (E. coli; cutoff for positive-scoring molecules 3-fold increase, read-out: AK-based Prestwick Library Screening Results, E. coli (fold increase in extracellular AK activity)) of 1.3.

In the case of COc1cc2c(c(OC)c1OC)-c1ccc(O)c(=O)cc1C(N)CC2 (centres unmarked) [Trimethylcolchicinic acid], the fold induction at 50 µM (E. faecium; [3]) is reported as 1.2, the fold induction at 50 µM (P. aeruginosa; [4]) is reported as 0.7 and the fold induction at 50 µM (E. cloacae; [5]) is reported as 0.8. The fold induction at 50 µM [1, 6] was 0.6, the fold induction at 50 µM [2, 7] was 1 and the fold induction at 50 µM (K. pneumoniae; [8]) was 0.7. For the same molecule, the fold induction at 50 µM (E. coli; [9]) was 0.8.

c1cncc(C2=NCCC2)c1 [Myosmine] was tested, and the fold induction at 50 µM (E. faecium; planktonic, […], read-out: AK-based Prestwick Library Screening Results, E. faecium (fold increase in extracellular AK activity)) was 0.9, the fold induction at 50 µM (P. aeruginosa; planktonic, […], read-out: AK-based Prestwick Library Screening Results, P. aeruginosa (fold increase in extracellular AK activity)) was 0.4 and the fold induction at 50 µM (E. cloacae; planktonic, […], read-out: AK-based Prestwick Library Screening Results, E. cloacae (fold increase in extracellular AK activity)) was 0.4. The fold induction at 50 µM ([1]; planktonic, […], read-out: AK-based Prestwick Library Screening Results, S. aureus (fold increase in extracellular AK activity)) was 0.4, the fold induction at 50 µM ([2]; planktonic, […], read-out: AK-based Prestwick Library Screening Results, A. baumannii (fold increase in extracellular AK activity)) was 0.5 and the fold induction at 50 µM (K. pneumoniae; planktonic, […], read-out: AK-based Prestwick Library Screening Results, K. pneumoniae (fold increase in extracellular AK activity)) was 0.5. For the same molecule, the fold induction at 50 µM (E. coli; planktonic, […], read-out: AK-based Prestwick Library Screening Results, E. coli (fold increase in extracellular AK activity)) was 0.5.

NS(=O)(=O)c1cc2c(cc1Cl)NC(C(Cl)Cl)NS2(=O)=O (centres unmarked) [Trichlormethiazide] gave a fold induction at 50 µM (E. faecium; planktonic, cutoff for positive-scoring molecules 3-fold increase, read-out: AK-based Prestwick Library Screening Results, E. faecium (fold increase in extracellular AK activity)) of 1.4, a fold induction at 50 µM (P. aeruginosa; planktonic, cutoff for positive-scoring molecules 3-fold increase, read-out: AK-based Prestwick Library Screening Results, P. aeruginosa (fold increase in extracellular AK activity)) of 0.8 and a fold induction at 50 µM (E. cloacae; planktonic, cutoff for positive-scoring molecules 3-fold increase, read-out: AK-based Prestwick Library Screening Results, E. cloacae (fold increase in extracellular AK activity)) of 1.2. The fold induction at 50 µM ([1]; planktonic, cutoff for positive-scoring molecules 3-fold increase, read-out: AK-based Prestwick Library Screening Results, S. aureus (fold increase in extracellular AK activity)) was 1.3, the fold induction at 50 µM ([2]; planktonic, cutoff for positive-scoring molecules 3-fold increase, read-out: AK-based Prestwick Library Screening Results, A. baumannii (fold increase in extracellular AK activity)) was 1 and the fold induction at 50 µM (K. pneumoniae; planktonic, cutoff for positive-scoring molecules 3-fold increase, read-out: AK-based Prestwick Library Screening Results, K. pneumoniae (fold increase in extracellular AK activity)) was 0.8. It also gave a fold induction at 50 µM (E. coli; planktonic, cutoff for positive-scoring molecules 3-fold increase, read-out: AK-based Prestwick Library Screening Results, E. coli (fold increase in extracellular AK activity)) of 0.8.

COc1ccc2c3c1O[C@H]1C[C@@H](O)C=C[C@@]31CCN(C)C2 [Galanthamine hydrobromide] was tested, and the fold induction at 50 µM (E. faecium; [3]) was 0.9, the fold induction at 50 µM (P. aeruginosa; [4]) was 0.8 and the fold induction at 50 µM (E. cloacae; [5]) was 1. It also gave a fold induction at 50 µM [1, 6] of 0.8, a fold induction at 50 µM [2, 7] of 0.8 and a fold induction at 50 µM (K. pneumoniae; [8]) of 0.8. It also gave a fold induction at 50 µM (E. coli; [9]) of 0.9.

Work on CC1=C(CC(=O)O)c2cc(F)ccc2/C1=C\c1ccc([S+](C)[O-])cc1 (centres unmarked) [Sulindac] yielded a fold induction at 50 µM (E. faecium; planktonic E. faecium, 384-well, cutoff for positive-scoring molecules 3-fold increase, read-out: AK-based Prestwick Library Screening Results: E. faecium (increase in extracellular AK activity)) of 0.9, a fold induction at 50 µM (P. aeruginosa; planktonic P. aeruginosa, 384-well, cutoff for positive-scoring molecules 3-fold increase, read-out: AK-based Prestwick Library Screening Results: P. aeruginosa (increase in extracellular AK activity)) of 0.8 and a fold induction at 50 µM (E. cloacae; planktonic E. cloacae, 384-well, cutoff for positive-scoring molecules 3-fold increase, read-out: AK-based Prestwick Library Screening Results: E. cloacae (increase in extracellular AK activity)) of 1.5. For the same molecule, the fold induction at 50 µM ([1]; planktonic S. aureus, 384-well, cutoff for positive-scoring molecules 3-fold increase, read-out: AK-based Prestwick Library Screening Results: S. aureus (increase in extracellular AK activity)) was 0.8, the fold induction at 50 µM ([2]; planktonic A. baumannii, 384-well, cutoff for positive-scoring molecules 3-fold increase, read-out: AK-based Prestwick Library Screening Results: A. baumannii (increase in extracellular AK activity)) was 1.1 and the fold induction at 50 µM (K. pneumoniae; planktonic K. pneumoniae, 384-well, cutoff for positive-scoring molecules 3-fold increase, read-out: AK-based Prestwick Library Screening Results: K. pneumoniae (increase in extracellular AK activity)) was 1. For the same molecule, the fold induction at 50 µM (E. coli; planktonic E. coli, 384-well, cutoff for positive-scoring molecules 3-fold increase, read-out: AK-based Prestwick Library Screening Results: E. coli (increase in extracellular AK activity)) was 1.1.

COc1cc([S+](C)[O-])ccc1-c1nc2ncccc2[nH]1 (centres unmarked) [Sulmazole] showed a fold induction at 50 µM (E. faecium; planktonic, cutoff for positive 3-fold increase, read-out: AK-based Prestwick Library Screening Results, E. faecium (fold increase in extracellular AK activity)) of 0.9, a fold induction at 50 µM (P. aeruginosa; planktonic, cutoff for positive 3-fold increase, read-out: AK-based Prestwick Library Screening Results, P. aeruginosa (fold increase in extracellular AK activity)) of 0.3 and a fold induction at 50 µM (E. cloacae; planktonic, cutoff for positive 3-fold increase, read-out: AK-based Prestwick Library Screening Results, E. cloacae (fold increase in extracellular AK activity)) of 0.3. The fold induction at 50 µM ([1]; planktonic, cutoff for positive 3-fold increase, read-out: AK-based Prestwick Library Screening Results, S. aureus (fold increase in extracellular AK activity)) was 0.4, the fold induction at 50 µM ([2]; planktonic, cutoff for positive 3-fold increase, read-out: AK-based Prestwick Library Screening Results, A. baumannii (fold increase in extracellular AK activity)) was 0.3 and the fold induction at 50 µM (K. pneumoniae; planktonic, cutoff for positive 3-fold increase, read-out: AK-based Prestwick Library Screening Results, K. pneumoniae (fold increase in extracellular AK activity)) was 0.5. It also gave a fold induction at 50 µM (E. coli; planktonic, cutoff for positive 3-fold increase, read-out: AK-based Prestwick Library Screening Results, E. coli (fold increase in extracellular AK activity)) of 0.3.
